From patent publication US4198506A, “2-Carboxyalkyl-2,3-dihydro-6-mercapto-s-triazolo[4,3-b]-pyridazin-3-ones” (Bristol-Myers Company, priority 1979, dated 1980)
Converted amounts (≈) assume the structure as drawn. “And” between values parts separate entries of the source, which are not always exact repeats. Equal entries are not always repeated. Where two headings read alike, the source gives them in different places.

Columns and labels:
Enterob. cloacae = assay: In vitro antibacterial activity (Steers' agar dilution MIC); format: cell-based; conditions: table 2 (BB-S493); Enterob. cloacae A9656; read-out: MIC
Shig. dysenteriae = assay: as above; format: cell-based; conditions: Shigella dysenteriae, table 2 (BB-S493); Shig dysenteriae
Ps. aeruginosa = assay: as above; format: cell-based; conditions: table 2 (BB-S493)
St. faecalis = assay: as above; format: cell-based; conditions: Enterococcus faecalis, table 2 (BB-S493); St. faecalis A9536; read-out: MIC
Sal. enteritidis = assay: as above; format: cell-based; conditions: Salmonella enterica, table 2 (BB-S493), Sal. enteritidis A9531
Serr. marcescens = assay: as above; format: cell-based; conditions: Serratia marcescens; table 2 (BB-S493); Serr. marcescens A20019; read-out: MIC
Pr. vulgaris = assay: as above; format: cell-based; conditions: Proteus vulgaris, table 2 (BB-S493), read-out: MIC
Pr. morganii = assay: as above; format: cell-based; conditions: Morganella morganii, table 2 (BB-S493), read-out: MIC
B. anthracis = assay: microbe, parasite or virus in culture; format: cell-based; conditions: Bacillus anthracis, table 2 (BB-S493); B. anthracis A9504
E. coli Juhl = assay: In vivo activity (Mice, sc); conditions: several determinations listed; for ED50: Escherichia coli, read-out: PD50
Description: (§1) |In vivo Activity of BB-[…] and Related Compounds (Mice, sc) | (PD50 (mgm./kg.)

S. aureus Smith = assay: In vivo activity (Mice, sc); conditions: several determinations listed; for ED50: Staphylococcus aureus, read-out: PD50
Description: as §1

Pr. mirabilis = assay: In vitro antibacterial activity (Steers' agar dilution MIC); format: cell-based; conditions: Proteus mirabilis, table 2 (BB-S493), read-out: MIC
Pr. rettgeri = assay: as above; format: cell-based; conditions: Providencia rettgeri, table 2 (BB-S493); Pr. rettgeri A15167
Sal. typhosa = assay: as above; format: cell-based; conditions: table 2 (BB-S493); Sal. typhosa A9498
Description: (§2) In vitro Antibacterial Activity of BB-S493 Compared with
(§3) BB-S479 and Cefamandole (Determined by Steers' Agar Dilu-
(§4) tion Method on Mueller-Hinton Agar Plate)
(§5) In vitro antibacterial activity of BB-S 525 compared with
(§6) BB-S 479 and cefamandole (determined by Steers' agar dilution
(§7) method on Mueller-Hinton agar plate)

S. aureus = assay: as above; format: cell-based; conditions: Staphylococcus aureus, table 2 (BB-S493)
Description: as §2, §3, §4, §5, §6, §7

Shig. sonnei = assay: as above; format: cell-based; conditions: Shigella sonnei, table 2 (BB-S493); Shig. sonnei A9516
Description: as §2, §3, §4, §5, §6, §7

Shig. flexneri = assay: as above; format: cell-based; conditions: Shigella flexneri; table 2 (BB-S493); Shig. flexneri A9684; read-out: MIC
Description: as §2, §3, §4, §5, §6, §7

Kl. pneumoniae = assay: as above; format: cell-based; conditions: Klebsiella pneumoniae, table 2 (BB-S493)
Description: as §2, §3, §4, §5, §6, §7

E. coli = assay: as above; format: cell-based; conditions: Escherichia coli, read-out: MIC
Description: as §2, §3, §4, §5, §6, §7

E. coli (sensitive) = assay: In vitro activity (geometric mean MIC, serial dilution); format: cell-based; conditions: Escherichia coli, read-out: Geometric Mean MIC
rabbits = assay: Preliminary nephrotoxicity study; format: in vivo; conditions: two rabbits, 100 mg./kg. intravenously
Description: A preliminary nephrotoxicity study was carried out by administration of the test compound to a group of two rabbits at 100 mg./kg. intravenously.

[1] = system: S. aureus penicillinase+); assay: In vitro activity (geometric mean MIC, serial dilution); format: cell-based; conditions: Staphylococcus aureus, read-out: Geometric Mean MIC
Klebsiella sp. = assay: as above; format: cell-based; conditions: read-out: Geometric Mean MIC
Enterobacter (sensitive) = assay: as above; format: cell-based; conditions: 3 strains, Mueller-Hinton agar, inoculum 10^4 dilution, MIC cutoff 200 mcg./ml., read-out: Geometric Mean MIC
[2] = system: Proteus (indole +, cephalosporinase +); assay: as above; format: cell-based; conditions: 5 strains; Mueller-Hinton agar, inoculum 10^4 dilution; MIC cutoff 200 mcg./ml.; read-out: Geometric Mean MIC
Proteus (indole +) = assay: as above; format: cell-based; conditions: read-out: Geometric Mean MIC
[3] = system: Enterobacter (Cephalosporinase +); assay: as above; format: cell-based; conditions: 7 strains, Mueller-Hinton agar, inoculum 10^4 dilution, MIC cutoff 200 mcg./ml.
[4] = system: E. coli (Penicillinase +); assay: as above; format: cell-based; conditions: Escherichia coli; 7 strains; Mueller-Hinton agar, inoculum 10^4 dilution; MIC cutoff 200 mcg./ml.; read-out: Geometric Mean MIC
[5] = system: Miscellaneous (Salmonella, Shigella, Citrobacter); assay: microbe, parasite or virus in culture; conditions: read-out: Geometric Mean MIC
Proteus (indole-) = assay: In vitro activity (geometric mean MIC, serial dilution); format: cell-based; conditions: 6 strains; Mueller-Hinton agar, inoculum 10^4 dilution; MIC cutoff 200 mcg./ml.; read-out: Geometric Mean MIC
S. aureus (sensitive) = assay: as above; format: cell-based; conditions: Staphylococcus aureus, read-out: Geometric Mean MIC
S. marcescens = assay: as above; format: cell-based; conditions: Serratia marcescens; 16 strains; Mueller-Hinton agar, inoculum 10^4 dilution; MIC cutoff 200 mcg./ml.; read-out: Geometric Mean MIC
[6] = system: S. aureus (Methicillin-R); assay: as above; format: cell-based; conditions: Staphylococcus aureus; 15 strains; Mueller-Hinton agar, inoculum 10^4 dilution; MIC cutoff 200 mcg./ml.
D. pneumoniae = assay: as above; format: cell-based; conditions: Streptococcus pneumoniae; 9 strains; Mueller-Hinton agar, inoculum 10^4 dilution; MIC cutoff 200 mcg./ml.
S. pyogenes = assay: as above; format: cell-based; conditions: Streptococcus pyogenes; 10 strains; Mueller-Hinton agar, inoculum 10^4 dilution; MIC cutoff 200 mcg./ml.
Providencia sp. = assay: as above; format: cell-based; conditions: 5 strains, Mueller-Hinton agar, inoculum 10^4 dilution, MIC cutoff 200 mcg./ml., read-out: Geometric Mean MIC

## NCC1=C(CC(=O)N[C@@H]2C(=O)N3C(C(=O)O)=C(CSc4ccc5nn(CC(=O)O)c(=O)n5n4)CS[C@H]23)CC=CC1 [BB-S493, 7-[(2-Aminomethyl-1,4-cyclohexadienyl)acetamido]3-(2-N-carboxymethyl-s-triazolo[4,5-b]pyridazin-3-on-6-ylthiomethyl)-3-cephem-4-carboxylic Acid]
Enterob. cloacae
  MIC: 6.3 µg/mL (≈ 10.7 µM)
Shig. dysenteriae
  MIC: 0.05 µg/mL (≈ 0.0851 µM)
Ps. aeruginosa; Pseudomonas aeruginosa, Ps. aeruginosa A9843, read-out: MIC
  MIC: > 100 µg/mL
Ps. aeruginosa; Ps. aerugionsa A9930
  MIC: > 100 µg/mL
St. faecalis
  MIC: 100 µg/mL (≈ 170 µM)
Sal. enteritidis
  MIC: 0.1 µg/mL (≈ 0.17 µM)
Serr. marcescens
  MIC: 100 µg/mL (≈ 170 µM)
Pr. vulgaris; Pr. vulgaris A9436
  MIC: 0.4 µg/mL (≈ 0.681 µM)
Pr. vulgaris; Pr. vulgaris A9699
  MIC: 6.3 µg/mL (≈ 10.7 µM)
Pr. morganii; Pr. morganii A9553
  MIC: > 100 µg/mL
Pr. morganii; Pr. morganii A20031
  MIC: 0.4 µg/mL (≈ 0.681 µM)
B. anthracis
  MIC: 0.0125 µg/mL (≈ 0.0213 µM)
E. coli Juhl
  ED50: 0.27 mg/kg
S. aureus Smith
  ED50: 0.29 mg/kg
Pr. mirabilis; Pr. mirabilis A9554
  MIC: 0.2 µg/mL (≈ 0.34 µM)
Pr. mirabilis; Pr. mirabilis A9900
  MIC: 0.2 µg/mL (≈ 0.34 µM)
Pr. rettgeri
  MIC: 0.1 µg/mL (≈ 0.17 µM)
Sal. typhosa
  MIC: 0.1 µg/mL (≈ 0.17 µM)
S. aureus; S. aureus A9497
  MIC: 0.2 µg/mL (≈ 0.34 µM)
S. aureus; S. aureus BX-1633 A9606
  MIC: 0.4 µg/mL (≈ 0.681 µM)
S. aureus; S. aureus Smith A9537
  MIC: 0.4 µg/mL (≈ 0.681 µM)
Shig. sonnei
  MIC: 0.05 µg/mL (≈ 0.0851 µM)
Shig. flexneri
  MIC: 25 µg/mL (≈ 42.5 µM)
Kl. pneumoniae; Kl. pneumoniae A9678
  MIC: 0.4 µg/mL (≈ 0.681 µM)
Kl. pneumoniae; Kl. pneumoniae A9867
  MIC: 0.2 µg/mL (≈ 0.34 µM)
Kl. pneumoniae; Kl. pneumoniae A9977
  MIC: 0.2 µg/mL (≈ 0.34 µM)
Kl. pneumoniae; Kl. pneumoniae A15130
  MIC: 0.2 µg/mL (≈ 0.34 µM)
E. coli; ATCC8739, table 2 (BB-S493), E. coli ATCC 8739
  MIC: 0.2 µg/mL (≈ 0.34 µM)
E. coli; table 2 (BB-S493), E. coli A9660
  MIC: 0.1 µg/mL (≈ 0.17 µM)
E. coli; table 2 (BB-S493), E. coli A15147
  MIC: 6.3 µg/mL (≈ 10.7 µM)
E. coli; table 2 (BB-S493), E. coli A15810
  MIC: 0.2 µg/mL (≈ 0.34 µM)
E. coli; table 2 (BB-S493), E. coli BX-1373
  MIC: 0.4 µg/mL (≈ 0.681 µM)
E. coli; table 2 (BB-S493), E. coli Juhl A15119
  MIC: 0.2 µg/mL (≈ 0.34 µM)
E. coli; table 2 (BB-S493), E. coli NIHJ
  MIC: 0.1 µg/mL (≈ 0.17 µM)

## NCc1ccccc1CC(=O)N[C@@H]1C(=O)N2C(C(=O)O)=C(CSc3ccc4nn(CC(=O)O)c(=O)n4n3)CS[C@H]12 [BB-S469]
E. coli (sensitive)
  MIC: 0.3 µg/mL (≈ 0.512 µM)
rabbits
  nephrotoxic potential: little nephrotoxic potential
[1]
  MIC: 1.2 µg/mL (≈ 2.05 µM)
Klebsiella sp.
  MIC: 0.9 µg/mL (≈ 1.54 µM)
Enterobacter (sensitive)
  MIC: 1 µg/mL (≈ 1.71 µM)
[2]
  MIC: 11 µg/mL (≈ 18.8 µM)
Proteus (indole +)
  MIC: 0.5 µg/mL (≈ 0.854 µM)
[3]
  MIC: 4.7 µg/mL (≈ 8.03 µM)
[4]
  MIC: 11 µg/mL (≈ 18.8 µM)
[5]
  MIC: 0.7 µg/mL (≈ 1.2 µM)
Proteus (indole-)
  MIC: 0.6 µg/mL (≈ 1.02 µM)
E. coli Juhl
  ED50: 0.19 mg/kg
  PD50: 0.24 mgm./kg. and 0.15 mgm./kg.
S. aureus Smith
  ED50: 0.19 mg/kg
  PD50: 0.16 mgm./kg. and 0.29 mgm./kg. and 0.2 mgm./kg.
S. aureus (sensitive)
  MIC: 0.4 µg/mL (≈ 0.683 µM)
S. marcescens
  MIC: 130 µg/mL (≈ 222 µM)
[6]
  MIC: 30 µg/mL (≈ 51.2 µM)
D. pneumoniae
  MIC: 0.03 µg/mL (≈ 0.0512 µM)
S. pyogenes
  MIC: 0.05 µg/mL (≈ 0.0854 µM)
Providencia sp.
  MIC: 4.2 µg/mL (≈ 7.17 µM)
